Reference: ChEMBL document CHEMBL1949518, “Synthesis and biological evaluation of some new 2-pyrazolines bearing benzene sulfonamide moiety as potential anti-inflammatory and anti-cancer agents” (Eur J Med Chem, 2011)

Legend:
Format in all cases: functional
RXF 393 = experiment: Antiproliferative activity against human RXF393 cells assessed as cell growth at 10^-5 M after 48 hrs by SRB assay relative to control; settings: RXF 393, 48 h, read-out: Activity
Malme-3M = experiment: Antiproliferative activity against human MALME-3M cells assessed as cell growth at 10^-5 M after 48 hrs by SRB assay relative to control; settings: read-out: Activity
RPMI-8226 = experiment: Antiproliferative activity against human RPMI8226 cells assessed as cell growth at 10^-5 M after 48 hrs by SRB assay relative to control; settings: RPMI-8226, 48 h, read-out: Activity
NCI-H460 = experiment: Antiproliferative activity against human NCI-H460 cells assessed as cell growth at 10^-5 M after 48 hrs by SRB assay relative to control; settings: NCI-H460, 48 h, read-out: Activity
MDA-MB-468 = experiment: Antiproliferative activity against human MDA-MB-468 cells assessed as cell growth at 10^-5 M after 48 hrs by SRB assay relative to control; settings: MDA-MB-468, 48 h, read-out: Activity
KM12 = experiment: Antiproliferative activity against human KM12 cells assessed as cell growth at 10^-5 M after 48 hrs by SRB assay relative to control; settings: KM12, 48 h, read-out: Activity
SR = experiment: Antiproliferative activity against human SR cells assessed as cell growth at 10^-5 M after 48 hrs by SRB assay relative to control; settings: read-out: Activity
T47D = experiment: Antiproliferative activity against human T47D cells assessed as cell growth at 10^-5 M after 48 hrs by SRB assay relative to control; settings: read-out: Activity
UACC-257 = experiment: Antiproliferative activity against human UACC257 cells assessed as cell growth at 10^-5 M after 48 hrs by SRB assay relative to control; settings: UACC-257, 48 h, read-out: Activity
CCRF-CEM = experiment: Antiproliferative activity against human CCRF-CEM cells assessed as cell growth at 10^-5 M after 48 hrs by SRB assay relative to control; settings: read-out: Activity
SK-OV-3 = experiment: Antiproliferative activity against human SKOV3 cells assessed as cell growth at 10^-5 M after 48 hrs by SRB assay relative to control; settings: SK-OV-3, 48 h, read-out: Activity
MDA-MB-435 = experiment: Antiproliferative activity against human MDA-MB-435 cells assessed as cell growth at 10^-5 M after 48 hrs by SRB assay relative to control; settings: MDA-MB-435, 48 h, read-out: Activity
Rattus norvegicus = experiment: Antiinflammatory activity in Wistar rat assessed as inhibition of carrageenan-induced paw edema at 20 mg/kg, po administered 30 mins before carrageenan challenge measured after 5 hrs
NCI-H322M = experiment: Antiproliferative activity against human NCI-H322M cells assessed as cell growth at 10^-5 M after 48 hrs by SRB assay relative to control; settings: read-out: Activity
NCI-H226 = experiment: Antiproliferative activity against human NCI-H226 cells assessed as cell growth at 10^-5 M after 48 hrs by SRB assay relative to control; settings: NCI-H226, 48 h, read-out: Activity
COLO 205 = experiment: Antiproliferative activity against human COLO205 cells assessed as cell growth at 10^-5 M after 48 hrs by SRB assay relative to control; settings: COLO 205, 48 h, read-out: Activity
OVCAR-8 = experiment: Antiproliferative activity against human OVCAR8 cells assessed as cell growth at 10^-5 M after 48 hrs by SRB assay relative to control; settings: OVCAR-8, 48 h, read-out: Activity
LOX IMVI = experiment: Antiproliferative activity against human LOXIMVI cells assessed as cell growth at 10^-5 M after 48 hrs by SRB assay relative to control; settings: read-out: Activity
DU-145 = experiment: Antiproliferative activity against human DU145 cells assessed as cell growth at 10^-5 M after 48 hrs by SRB assay relative to control; settings: DU-145, 48 h, read-out: Activity
HOP-92 = experiment: Antiproliferative activity against human HOP92 cells assessed as cell growth at 10^-5 M after 48 hrs by SRB assay relative to control; settings: HOP-92, 48 h, read-out: Activity
SNB-19 = experiment: Antiproliferative activity against human SNB19 cells assessed as cell growth at 10^-5 M after 48 hrs by SRB assay relative to control; settings: SNB-19, 48 h, read-out: Activity
EKVX = experiment: Antiproliferative activity against human EKVX cells assessed as cell growth at 10^-5 M after 48 hrs by SRB assay relative to control; settings: read-out: Activity
SF-295 = experiment: Antiproliferative activity against human SF295 cells assessed as cell growth at 10^-5 M after 48 hrs by SRB assay relative to control; settings: SF-295, 48 h, read-out: Activity
HCT-116 = experiment: Antiproliferative activity against human HCT116 cells assessed as cell growth at 10^-5 M after 48 hrs by SRB assay relative to control; settings: HCT-116, 48 h, read-out: Activity
SW-620 = experiment: Antiproliferative activity against human SW620 cells assessed as cell growth at 10^-5 M after 48 hrs by SRB assay relative to control; settings: SW-620, 48 h, read-out: Activity
NCI-H23 = experiment: Antiproliferative activity against human NCI-H23 cells assessed as cell growth at 10^-5 M after 48 hrs by SRB assay relative to control; settings: NCI-H23, 48 h, read-out: Activity
SK-MEL-5 = experiment: Antiproliferative activity against human SK-MEL-5 cells assessed as cell growth at 10^-5 M after 48 hrs by SRB assay relative to control; settings: SK-MEL-5, 48 h, read-out: Activity
SK-MEL-28 = experiment: Antiproliferative activity against human SK-MEL-28 cells assessed as cell growth at 10^-5 M after 48 hrs by SRB assay relative to control; settings: SK-MEL-28, 48 h, read-out: Activity
BT-549 = experiment: Antiproliferative activity against human BT549 cells assessed as cell growth at 10^-5 M after 48 hrs by SRB assay relative to control; settings: BT-549, 48 h, read-out: Activity
SN12C = experiment: Antiproliferative activity against human SN12C cells assessed as cell growth at 10^-5 M after 48 hrs by SRB assay relative to control; settings: read-out: Activity
K562 = experiment: Antiproliferative activity against human K562 cells assessed as cell growth at 10^-5 M after 48 hrs by SRB assay relative to control; settings: K562, 48 h, read-out: Activity
SF-539 = experiment: Antiproliferative activity against human SF539 cells assessed as cell growth at 10^-5 M after 48 hrs by SRB assay relative to control; settings: SF-539, 48 h, read-out: Activity
HOP-62 = experiment: Antiproliferative activity against human HOP62 cells assessed as cell growth at 10^-5 M after 48 hrs by SRB assay relative to control; settings: HOP-62, 48 h, read-out: Activity

Compound | growth at 10 µM (RXF 393) [%] | growth at 10 µM (Malme-3M) [%] | growth at 10 µM (RPMI-8226) [%] | growth at 10 µM (NCI-H460) [%] | growth at 10 µM (MDA-MB-468) [%] | growth at 10 µM (KM12) [%] | growth at 10 µM (SR) [%] | growth at 10 µM (T47D) [%] | growth at 10 µM (UACC-257) [%] | growth at 10 µM (CCRF-CEM) [%] | growth at 10 µM (SK-OV-3) [%] | growth at 10 µM (MDA-MB-435) [%] | inhibition in vivo at 20 mg/kg (Rattus norvegicus) [%] | growth at 10 µM (NCI-H322M) [%] | growth at 10 µM (NCI-H226) [%] | growth at 10 µM (COLO 205) [%] | growth at 10 µM (OVCAR-8) [%] | growth at 10 µM (LOX IMVI) [%] | growth at 10 µM (DU-145) [%] | growth at 10 µM (HOP-92) [%] | other results
COc1ccc(C2CC(c3c(O)cc(C)c(Cl)c3C)=NN2c2ccc(S(N)(=O)=O)cc2)cc1 (centres undefined) | 111 | 138 | 63.9 | 62 | 91.5 | 75 | 41.5 | 62.1 | 103 | 38.7 | 101 | 79.3 | 36.4 | 85.1 | 98.7 | 102 | 101 | 70.6 | 92.4 | 43.3 | growth at 10 µM (SNB-19): 92.7%; growth at 10 µM (EKVX): 70.5%; growth at 10 µM (SF-295): 152%; growth at 10 µM (HCT-116): 75.5%; growth at 10 µM (SW-620): 94.8%; growth at 10 µM (NCI-H23): 108%; growth at 10 µM (SK-MEL-5): 94.4%; growth at 10 µM (SK-MEL-28): 96.7%; growth at 10 µM (BT-549): 119%; growth at 10 µM (SN12C): 99.4%; growth at 10 µM (K562): 44.1%; growth at 10 µM (SF-539): 92.3%; growth at 10 µM (HOP-62): 78.1%
Cc1cc(O)c(C2=NN(c3ccc(S(N)(=O)=O)cc3)C(c3ccc(Cl)cc3)C2)c(C)c1Cl (centres undefined) | 93.4 | 157 | 25.5 | 47.1 | 91.1 | 62.4 | -22.2 | 37 | 97.6 | 28 | 106 | 69.3 | 81.8 | 97.6 | 88.8 | 76.2 | 75.2 | 82.8 | 75.2 | 45.5 | growth at 10 µM (SNB-19): 107%; growth at 10 µM (EKVX): 51.1%; growth at 10 µM (SF-295): 6.34%; growth at 10 µM (HCT-116): 41.1%; growth at 10 µM (SW-620): 72.2%; growth at 10 µM (NCI-H23): 79.3%; growth at 10 µM (SK-MEL-5): 79.6%; growth at 10 µM (SK-MEL-28): 90.2%; growth at 10 µM (BT-549): 95.7%; growth at 10 µM (SN12C): 74.8%; growth at 10 µM (K562): 25%; growth at 10 µM (SF-539): 91.6%; growth at 10 µM (HOP-62): 107%
Cc1cc(O)c(C2=NN(c3ccc(S(N)(=O)=O)cc3)C(c3ccc(N(C)C)cc3)C2)c(C)c1Cl (centres undefined) | 48.1 | 103 | -37.6 | 3.35 | 43.7 | 29.1 | -24.1 | 46.9 | 74.1 | 11.6 | 81.6 | 38.6 | 36.4 | 75.3 | 106 | 30.8 | 5.73 | 52.4 | 49.3 | 21.3 | growth at 10 µM (SNB-19): 89.8%; growth at 10 µM (EKVX): 49.7%; growth at 10 µM (SF-295): 20.4%; growth at 10 µM (HCT-116): 55.1%; growth at 10 µM (SW-620): 48.5%; growth at 10 µM (NCI-H23): 78.8%; growth at 10 µM (SK-MEL-5): 81.7%; growth at 10 µM (SK-MEL-28): 76.3%; growth at 10 µM (BT-549): 112%; growth at 10 µM (SN12C): 36.1%; growth at 10 µM (K562): 21%; growth at 10 µM (SF-539): 79%; growth at 10 µM (HOP-62): 84.3%
